Measured values reported in paper PMC7756583, “Hydroxamic Acids Immobilized on Resins (HAIRs): Synthesis of Dual‐Targeting HDAC Inhibitors and HDAC Degraders (PROTACs)” (Angewandte Chemie (International Ed. in English), 2020).
“And” between values parts separate entries of the source, which are not always exact repeats. Equal values may be shown once. “Also recorded” adds a separate entry of the source. Read-outs that look alike come from different tables or passages of the source.

Columns and labels:
[1] = system: human primary glioblastoma cell line U87; test: MTT cell viability assay, U87; assay type: cell-based; conditions: 72 h, read-out: Antiproliferative Effect IC50 U87
[2] = system: human primary glioblastoma cell line U251; test: MTT cell viability assay, U251; assay type: cell-based; conditions: for IC50: Homo sapiens, read-out: Antiproliferative Effect IC50 U251
[3] = system: human tongue squamous cell carcinoma cell line Cal27; test: MTT cell viability assay, Cal27; assay type: cell-based; conditions: for IC50: Homo sapiens, read-out: Antiproliferative Effect IC50 Cal27
HDAC1 = HDAC1 (Homo sapiens, UniProt Q13547); test: In-vitro human HDAC1 fluorogenic inhibition assay (ZMAL substrate); assay type: biochemical
HDAC6 = target: T1, HDAC6 (Homo sapiens, UniProt Q9UBN7); test: In-vitro human HDAC6 fluorogenic inhibition assay (ZMAL substrate); assay type: biochemical
T1 sequence (Q9UBN7 1-1215): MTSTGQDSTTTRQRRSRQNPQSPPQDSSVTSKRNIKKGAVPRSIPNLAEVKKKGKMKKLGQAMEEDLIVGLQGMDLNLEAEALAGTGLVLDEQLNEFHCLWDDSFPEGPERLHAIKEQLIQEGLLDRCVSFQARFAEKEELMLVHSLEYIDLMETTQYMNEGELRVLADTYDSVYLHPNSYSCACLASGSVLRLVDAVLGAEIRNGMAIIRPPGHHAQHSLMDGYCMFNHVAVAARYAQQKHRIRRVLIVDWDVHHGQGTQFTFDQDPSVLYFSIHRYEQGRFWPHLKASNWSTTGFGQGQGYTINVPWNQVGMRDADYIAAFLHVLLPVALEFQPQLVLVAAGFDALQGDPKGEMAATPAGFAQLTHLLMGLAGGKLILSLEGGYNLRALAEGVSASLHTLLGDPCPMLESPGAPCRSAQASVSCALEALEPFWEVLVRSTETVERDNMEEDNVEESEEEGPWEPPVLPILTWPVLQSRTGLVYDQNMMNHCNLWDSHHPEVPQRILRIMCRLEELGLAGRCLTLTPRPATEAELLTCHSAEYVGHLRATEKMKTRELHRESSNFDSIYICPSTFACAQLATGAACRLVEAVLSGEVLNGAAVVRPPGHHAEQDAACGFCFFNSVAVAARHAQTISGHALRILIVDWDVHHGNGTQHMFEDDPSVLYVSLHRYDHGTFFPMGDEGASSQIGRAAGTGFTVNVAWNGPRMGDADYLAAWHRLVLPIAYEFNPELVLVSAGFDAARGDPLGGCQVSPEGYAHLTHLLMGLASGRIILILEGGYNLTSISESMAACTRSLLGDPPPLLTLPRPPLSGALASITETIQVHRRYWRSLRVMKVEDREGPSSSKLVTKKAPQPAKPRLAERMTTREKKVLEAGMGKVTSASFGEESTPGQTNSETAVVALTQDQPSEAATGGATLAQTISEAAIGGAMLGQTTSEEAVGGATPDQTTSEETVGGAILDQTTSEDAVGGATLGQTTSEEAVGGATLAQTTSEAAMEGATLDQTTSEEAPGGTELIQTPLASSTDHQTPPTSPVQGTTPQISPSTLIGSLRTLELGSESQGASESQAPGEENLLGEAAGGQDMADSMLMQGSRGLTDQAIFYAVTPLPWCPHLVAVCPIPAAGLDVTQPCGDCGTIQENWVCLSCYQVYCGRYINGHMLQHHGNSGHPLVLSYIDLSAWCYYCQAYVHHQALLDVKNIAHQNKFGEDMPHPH

[4] = system: γ-H2AX formation in Cal27 cells; test: γ-H2AX expression DNA damage assay; assay type: cell-based, human
human recombinant HDAC2 = human recombinant HDAC2 (Homo sapiens, UniProt Q92769); test: In-vitro human HDAC2 fluorogenic inhibition assay (ZMAL substrate); assay type: biochemical
Cal27 cells = assay type: cell-based, human
[5] = system: caspase 3/7 activation in Cal27 cells; assay type: cell-based, human
HDAC8 recombinant enzyme = target: T2, HDAC8 recombinant enzyme (Homo sapiens, UniProt Q9BY41); test: In-vitro human HDAC8 assay (Boc-Lys-(TFa)-AMC substrate); assay type: biochemical
T2 sequence (Q9BY41 1-377): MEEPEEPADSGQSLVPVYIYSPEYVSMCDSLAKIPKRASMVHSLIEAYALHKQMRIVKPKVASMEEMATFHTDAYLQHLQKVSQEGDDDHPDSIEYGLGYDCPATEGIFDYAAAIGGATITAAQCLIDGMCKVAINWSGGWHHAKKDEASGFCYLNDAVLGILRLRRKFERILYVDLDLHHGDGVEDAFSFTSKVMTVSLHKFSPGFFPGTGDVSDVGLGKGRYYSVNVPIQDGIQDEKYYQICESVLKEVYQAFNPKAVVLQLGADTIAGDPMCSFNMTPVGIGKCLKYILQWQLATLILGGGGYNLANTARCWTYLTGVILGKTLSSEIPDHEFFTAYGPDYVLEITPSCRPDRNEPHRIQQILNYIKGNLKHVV

human recombinant HDAC3 = human recombinant HDAC3 (Homo sapiens, UniProt O15379); test: In-vitro human HDAC3 fluorogenic inhibition assay (ZMAL substrate); assay type: biochemical
[6] = MTT assay, n≥3, each in triplicate wells
[7] = fluorogenic assay, n≥2, each in duplicate wells, read-out: Target Inhibition IC50 HDAC1
[8] = fluorogenic assay, n≥2, each in duplicate wells, read-out: Target Inhibition IC50 HDAC6
[9] = U-251, MTT assay, 72 h, n≥3, each in triplicate wells, n.e.: no effect up to 100 μM
[10] = CAL-27, MTT assay, 72 h, n≥3, each in triplicate wells

Sequence of HDAC1 (Q13547 whole entry): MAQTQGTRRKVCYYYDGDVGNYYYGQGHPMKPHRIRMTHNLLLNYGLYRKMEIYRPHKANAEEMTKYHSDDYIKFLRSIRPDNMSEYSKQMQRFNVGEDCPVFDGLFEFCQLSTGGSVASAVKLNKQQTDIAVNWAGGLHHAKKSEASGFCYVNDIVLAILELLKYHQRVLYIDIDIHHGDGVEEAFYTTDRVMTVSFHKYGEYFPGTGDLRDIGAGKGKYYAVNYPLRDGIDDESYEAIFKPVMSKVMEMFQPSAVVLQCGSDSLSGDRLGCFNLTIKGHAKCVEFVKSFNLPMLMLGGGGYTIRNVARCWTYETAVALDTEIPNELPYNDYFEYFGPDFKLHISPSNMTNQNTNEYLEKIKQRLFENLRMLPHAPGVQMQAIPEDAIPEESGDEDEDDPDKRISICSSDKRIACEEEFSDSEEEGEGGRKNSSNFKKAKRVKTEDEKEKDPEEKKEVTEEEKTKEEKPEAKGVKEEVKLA
Sequence of human recombinant HDAC3 (O15379 whole entry): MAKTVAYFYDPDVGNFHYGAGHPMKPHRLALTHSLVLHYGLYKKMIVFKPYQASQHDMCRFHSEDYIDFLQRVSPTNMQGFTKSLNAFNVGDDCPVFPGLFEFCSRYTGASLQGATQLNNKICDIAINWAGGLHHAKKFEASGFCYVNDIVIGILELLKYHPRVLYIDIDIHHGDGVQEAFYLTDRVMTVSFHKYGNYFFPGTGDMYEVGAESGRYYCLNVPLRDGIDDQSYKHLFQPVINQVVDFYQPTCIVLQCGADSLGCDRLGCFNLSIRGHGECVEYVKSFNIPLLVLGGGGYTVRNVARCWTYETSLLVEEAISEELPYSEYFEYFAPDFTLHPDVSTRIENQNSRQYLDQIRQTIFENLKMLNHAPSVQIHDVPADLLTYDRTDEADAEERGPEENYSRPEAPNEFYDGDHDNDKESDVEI
Sequence of human recombinant HDAC3 (Q9Y618 395-489 partner limits assumed): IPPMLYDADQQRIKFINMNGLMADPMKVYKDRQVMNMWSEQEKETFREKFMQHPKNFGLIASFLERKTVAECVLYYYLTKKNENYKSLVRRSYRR
Sequence of human recombinant HDAC2 (Q92769 whole entry): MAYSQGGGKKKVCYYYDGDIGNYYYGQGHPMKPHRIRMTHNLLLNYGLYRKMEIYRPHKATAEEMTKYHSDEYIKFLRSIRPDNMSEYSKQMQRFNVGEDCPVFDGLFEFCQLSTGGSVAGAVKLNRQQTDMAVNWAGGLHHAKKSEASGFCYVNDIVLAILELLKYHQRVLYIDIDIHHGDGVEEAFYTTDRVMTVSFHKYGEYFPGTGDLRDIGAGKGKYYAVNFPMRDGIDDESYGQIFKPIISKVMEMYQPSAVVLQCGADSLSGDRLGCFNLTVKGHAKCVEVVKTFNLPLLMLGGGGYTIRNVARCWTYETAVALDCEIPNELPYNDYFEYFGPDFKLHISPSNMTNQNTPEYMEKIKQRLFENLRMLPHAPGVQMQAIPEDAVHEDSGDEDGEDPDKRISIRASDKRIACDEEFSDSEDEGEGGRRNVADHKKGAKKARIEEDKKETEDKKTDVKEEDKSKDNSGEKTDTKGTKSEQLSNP

SMILES | IC50 [1] [µM] | IC50 ([2]; U-251, 72 h) [µM] | IC50 ([3]; CAL-27, 72 h) [µM] | IC50 [1, 6] [µM] | IC50 (HDAC1; [7]) [µM] | IC50 (HDAC6; [8]) [µM] | IC50 [2, 9] [µM] | IC50 [3, 10] [µM] | IC50 (HDAC1) [µM] | IC50 (HDAC6) [µM] | other results
O=C(O)CCCc1ccc(N(CCCl)CCCl)cc1 [CAB, chlorambucil, reference compound] | 86.3 ± 17.5 | 48.7 ± 11.9 | 23.7 ± 2.26 | – | – | – | – | – | – | – | –
O=C(NO)c1ccc(CNC(=O)c2ncn3c(=O)n(CCCl)nnc23)cc1 [Compound 3 b] | – | – | – | 147 ± 19.7 | 0.394 ± 0.02 | 0.023 ± 0.002 | 44.5 ± 8.94 | 16.8 ± 3.62 | – | – | –
O=C(CCCc1ccc(N(CCCl)CCCl)cc1)NCc1ccc(C(=O)NO)cc1 [Compound 3 c] | 23.9 ± 3.41 | 22 ± 3.09 | 6.89 ± 1.04 | – | – | – | – | – | 0.518 ± 0.065 | 0.032 ± 0.003 | –
Cn1nnc2c(C(=O)NCCCC(=O)NO)ncn2c1=O [Compound 3 d] | – | – | – | 323 ± 107 | 35.1 ± 5.32 | 4.99 ± 0.129 | – | 97.1 ± 16.3 | – | – | Antiproliferative Effect IC50 U251 ([2]; MTT assay, 72 h, n≥3, each in triplicate wells, n.e.: no effect up to 100 μM): n.e.
O=C(CCCNC(=O)c1ncn2c(=O)n(CCCl)nnc12)NO [Compound 3 e] | – | – | – | 413 ± 77.7 | 16.2 ± 0.07 | 2.37 ± 0.086 | 461 ± 89.9 | 87.8 ± 9.52 | – | – | –
O=C(CCCNC(=O)CCCc1ccc(N(CCCl)CCCl)cc1)NO [Compound 3 f] | 46.1 ± 5.71 | 20.1 ± 2.41 | 8.67 ± 1.31 | – | – | – | – | – | 8.21 ± 0.183 | 4.6 ± 0.082 | –
O=C(CCCCCNC(=O)c1ncn2c(=O)n(CCCl)nnc12)NO [Compound 3 g] | – | – | – | 262 ± 75.6 | 0.681 ± 0.015 | 0.094 ± 0.002 | 140 ± 17.8 | 29 ± 3.73 | – | – | –
O=C(CCCCCNC(=O)CCCc1ccc(N(CCCl)CCCl)cc1)NO [Compound 3 h] | 43.9 ± 15.3 | 25.1 ± 3.27 | 7.5 ± 0.62 | – | – | – | – | – | 0.444 ± 0.053 | 0.121 ± 0.008 | –
Cn1nnc2c(C(=O)NCCCCCCC(=O)NO)ncn2c1=O [Compound 3 i] | – | – | – | 166 ± 33.6 | 0.161 ± 0.006 | 0.031 ± 0.002 | 86.2 ± 13.1 | 10.2 ± 1.54 | – | – | –
O=C(CCCCCCNC(=O)c1ncn2c(=O)n(CCCl)nnc12)NO [Compound 3 j] | – | – | – | 122 ± 56 | 0.143 ± 0.005 | 0.038 ± 0.004 | 48.2 ± 7.35 | 9.9 ± 1.24 | – | – | –
O=C(CCCCCCNC(=O)CCCc1ccc(N(CCCl)CCCl)cc1)NO [Compound 3 k] | 39.2 ± 7.16 | 27 ± 3.55 | 6.17 ± 0.51 | – | – | – | – | – | 0.244 ± 0.041 | 0.063 ± 0.001 | –
Cn1nnc2c(C(=O)NCc3ccc(/C=C/C(=O)NO)cc3)ncn2c1=O [Compound 3 l] | – | – | – | 141 ± 20.7 | 0.146 ± 0.008 | 0.072 ± 0.008 | 97.8 ± 9.07 | 15.4 ± 1.61 | – | – | γ-H2AX formation ([4]; Cal27 cells, IC50 (from MTT assay), 24 h): not different from control; γ-H2AX formation ([4]; Cal27 cells, fivefold IC50 (from MTT assay), 24 h): only weak DNA damage
O=C(/C=C/c1ccc(CNC(=O)CCCc2ccc(N(CCCl)CCCl)cc2)cc1)NO [Compound 3 n] | 19.8 ± 3.16 | 14.5 ± 1.59 | 2.68 ± 0.31 | – | – | – | – | – | 0.151 ± 0.021 | 0.062 ± 0.001 | IC50 (human recombinant HDAC2): 0.432 ± 0.015 µM; induction of apoptosis (subG1 nuclei) (Cal27 cells): more potent than 3 o, cisplatin, vorinostat, and CAB in inducing apoptosis; caspase 3/7 activation [5]: significantly more effective than the sum of the effects of 3 o and CAB; also recorded: significantly stronger than the sum of the effects of even 100 μM CAB and 30 μM 3 o; combination index (CI) [5]: 0,92 and 0,69 and 0,70; IC50 (HDAC8 recombinant enzyme): 4.04 ± 0.28 µM; IC50 (human recombinant HDAC3): 0.187 ± 0.009 µM; improved antiproliferative effect in comparison to parent compound CAB [3]: up to 10 fold; γ-H2AX formation [4]: significant increase in γ‐H2AX formation; also recorded: significantly more active than 3 l and 3 m; also recorded: significantly more effective than the sum of the effects of 3 o and CAB; also recorded: significantly greater DNA damage (γ‐H2AX assay) than 3 o
O=C(/C=C/c1ccc(CNC(=O)CCCc2ccccc2)cc1)NO [Compound 3 o] | – | – | – | 27.7 ± 6.52 | 0.156 ± 0.008 | 0.066 ± 0.001 | 23.9 ± 3.51 | 6.59 ± 0.44 | – | – | IC50 (human recombinant HDAC2; n≥2, each in duplicate wells, read-out: HDAC Inhibition IC50 HDAC 2): 0.194 ± 0.034 µM; IC50 (human recombinant HDAC3; n≥2, each in duplicate wells, read-out: HDAC Inhibition IC50 HDAC 3): 0.117 ± 0.02 µM
NC(=O)c1ncn2c(=O)n(CCCl)nnc12 [MTZ, mitozolomide, reference compound] | – | – | – | 57.4 ± 9.51 | – | – | 84.5 ± 7.3 | 3.56 ± 0.29 | – | – | –
Cn1nnc2c(C(N)=O)ncn2c1=O [TMZ, temozolomide, reference compound] | – | – | – | 144 ± 15.6 | – | – | 457 ± 57.3 | 56.8 ± 5.05 | – | – | –
Cn1c(CCCCCCC(=O)NO)nc2cc(N(CCCl)CCCl)ccc21 [tinostamustine, reference compound] | 8.32 ± 0.55 | 10.2 ± 0.62 | 2.94 ± 0.07 | – | – | – | – | – | 0.047 ± 0.003 | 0.011 ± 0.001 | –
